The structures appear in SMILES notation.

Sequence of H1047R PIK3CA enzyme (P42336 whole entry H1047R): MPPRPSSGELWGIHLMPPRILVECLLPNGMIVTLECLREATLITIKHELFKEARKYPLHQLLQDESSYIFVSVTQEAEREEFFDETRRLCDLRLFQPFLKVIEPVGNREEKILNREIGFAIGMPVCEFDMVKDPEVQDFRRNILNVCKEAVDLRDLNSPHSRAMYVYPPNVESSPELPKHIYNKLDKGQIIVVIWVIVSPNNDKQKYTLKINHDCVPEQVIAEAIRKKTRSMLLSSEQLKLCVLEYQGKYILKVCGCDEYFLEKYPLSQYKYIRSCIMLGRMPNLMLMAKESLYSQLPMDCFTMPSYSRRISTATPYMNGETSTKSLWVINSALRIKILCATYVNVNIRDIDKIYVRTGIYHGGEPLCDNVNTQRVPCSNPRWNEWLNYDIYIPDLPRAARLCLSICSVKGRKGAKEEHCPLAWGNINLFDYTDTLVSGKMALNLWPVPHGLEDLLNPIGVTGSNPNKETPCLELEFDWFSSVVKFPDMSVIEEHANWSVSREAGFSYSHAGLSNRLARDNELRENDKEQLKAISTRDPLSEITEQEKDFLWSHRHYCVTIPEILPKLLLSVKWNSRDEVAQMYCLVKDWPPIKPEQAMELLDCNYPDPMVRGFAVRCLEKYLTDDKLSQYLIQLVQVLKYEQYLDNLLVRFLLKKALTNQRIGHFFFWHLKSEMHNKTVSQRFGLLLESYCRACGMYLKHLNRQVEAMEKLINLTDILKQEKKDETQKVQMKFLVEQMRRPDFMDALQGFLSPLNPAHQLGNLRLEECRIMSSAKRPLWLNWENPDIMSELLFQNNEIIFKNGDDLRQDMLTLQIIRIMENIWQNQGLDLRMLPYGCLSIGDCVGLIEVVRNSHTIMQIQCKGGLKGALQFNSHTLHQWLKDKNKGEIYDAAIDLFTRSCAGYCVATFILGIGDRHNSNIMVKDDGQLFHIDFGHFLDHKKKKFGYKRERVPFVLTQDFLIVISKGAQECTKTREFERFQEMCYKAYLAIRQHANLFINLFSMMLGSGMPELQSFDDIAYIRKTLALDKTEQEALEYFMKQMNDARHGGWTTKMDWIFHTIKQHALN
Sequence of H1047R PIK3CA enzyme (P27986 whole entry partner): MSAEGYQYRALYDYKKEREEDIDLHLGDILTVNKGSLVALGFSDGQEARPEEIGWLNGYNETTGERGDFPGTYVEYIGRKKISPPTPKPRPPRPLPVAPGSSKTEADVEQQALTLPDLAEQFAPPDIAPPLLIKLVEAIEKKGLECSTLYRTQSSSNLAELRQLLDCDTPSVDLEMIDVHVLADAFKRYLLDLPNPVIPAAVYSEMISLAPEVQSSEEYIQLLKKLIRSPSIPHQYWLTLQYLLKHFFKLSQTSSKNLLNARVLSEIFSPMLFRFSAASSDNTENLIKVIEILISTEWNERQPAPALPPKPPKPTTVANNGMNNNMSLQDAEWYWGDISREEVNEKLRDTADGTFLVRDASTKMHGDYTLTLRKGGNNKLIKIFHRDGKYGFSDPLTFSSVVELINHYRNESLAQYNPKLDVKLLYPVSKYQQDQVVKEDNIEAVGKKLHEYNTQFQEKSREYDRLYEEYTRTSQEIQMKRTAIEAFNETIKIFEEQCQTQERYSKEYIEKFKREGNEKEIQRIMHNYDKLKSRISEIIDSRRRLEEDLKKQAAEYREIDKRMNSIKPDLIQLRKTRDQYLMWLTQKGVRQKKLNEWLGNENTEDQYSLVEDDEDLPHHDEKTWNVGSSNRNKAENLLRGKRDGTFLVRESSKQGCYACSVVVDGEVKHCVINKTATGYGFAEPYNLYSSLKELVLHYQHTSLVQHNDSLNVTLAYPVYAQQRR

The assay concerns the target H1047R PIK3CA enzyme (Homo sapiens, UniProt P42336, H1047R). Briefly: ADP-Glo Biochemical PIK3CA Kinase Assay.
Broadly, the IC50 is the concentration needed to halve the response being measured. A lower IC50 goes with higher potency. `COc1ccc(F)cc1C(=O)Nc1cc(Br)cc2c1C(c1cc(F)ccc1Cl)NC2=O` (stereo not drawn) [Compound I-796] yielded an IC50 of 1000 to 10000 nM. Compound `O=C1NC(c2cc(F)ccc2Cl)c2c(NC(=O)N3CC4CCC4(C(F)(F)F)C3)cc(Br)cc21` (stereo not drawn) [Compound I-1754] yielded a 50% inhibitory concentration (IC50) of 1000 to 10000 nM. Next, `CCC(N)(CC)c1cc(NC(=O)c2cc(F)cc(C(F)(F)F)c2)c2c(c1)C(=O)NC2c1cc(F)ccc1Cl` (stereo not drawn) [Compound I-554]: no more than 100 nM; `O=C(Nc1cc(-c2cn[nH]c2)nc2c1[C@H](c1cc(F)ccc1Cl)NC2=O)c1cc(F)cc(C(F)(F)F)c1` [Compound I-194]: no more than 100 nM; `O=C(Nc1cc(N[C@@H]2CC[C@H]2O)cc2c1C(c1cc(F)ccc1Cl)NC2=O)c1cc(F)cc(C(F)(F)F)c1` (mixture of isomers) [Compound I-721]: no more than 100 nM.

In turn, `Cc1ccccc1C1NC(=O)c2nccc(NC(=O)N3CCc4c(F)cc(F)cc43)c21` (stereo not drawn) [Compound I-148] returned an IC50 of 500 to 1000 nM. Next, `O=C(Nc1cccc2c1[C@@H](C1CC1)NC2=O)c1cc(F)cc(C(F)(F)F)c1` (single isomer, unassigned) [Compound I-2220]: 10000 to 100000 nM; `O=C(Nc1cc(-c2ccnc(C(F)F)c2)cc2c1[C@H](c1cc(F)ccc1Cl)NC2=O)c1cc(F)cc(C(F)(F)F)c1` [Compound I-2003]: no more than 100 nM; `Cc1ccccc1[C@@H]1NC(=O)c2nccc(NC(=O)N3CCc4ccc(F)cc43)c21` [Compound I-246]: 100 to 500 nM. Next, `Nc1cc(C2NC(=O)c3cccc(NC(=O)c4cc(F)cc(C(F)(F)F)c4)c32)ccn1` (stereo not drawn) [Compound I-828]: 10000 to 100000 nM; `COC(=O)C1CN(C(=O)Nc2cccc3c2C(c2cc(F)ccc2Cl)NC3=O)c2ccccc21` (stereo not drawn) [Compound I-2317]: 10000 to 100000 nM; `O=C1NC(c2cc(F)ccc2Cl)c2c(NC(=O)c3cncc4ccccc34)cc(Br)cc21` (stereo not drawn) [Compound I-673]: 1000 to 10000 nM. Compound `CC#Cc1cc(-c2ccc3ncnn3c2)cc2c1C(c1cc(F)ccc1Cl)NC2=O` (stereo not drawn) [Compound I-1988] gave an IC50 of 10000 to 100000 nM. Next, `O=C(Nc1cc(N2CC3CNCC3C2=O)cc2c1C(c1cc(F)ccc1Cl)NC2=O)c1cc(F)cc(C(F)(F)F)c1` (stereo not drawn) [Compound I-1291]: no more than 100 nM. Next, `O=C1NC(c2cc(F)ccc2Cl)c2c(NC(=O)N3CCC(O)(C(F)(F)F)C3)cc(-c3ccc4ncnn4c3)cc21` (stereo not drawn) [Compound I-1904]: 10000 to 100000 nM; `O=C(O)c1cc(NC(=O)c2cc(F)cc(C(F)(F)F)c2)c2c(c1)C(=O)NC2c1cc(F)ccc1Cl` (stereo not drawn) [Compound I-494]: no more than 100 nM; `CN(C)C(=O)c1cc(-c2ccc3ncnn3c2)cc2c1C(c1cc(F)ccc1Cl)NC2=O` (stereo not drawn) [Compound I-1857]: 10000 to 100000 nM. Next, `O=C(Nc1cc(Br)cc2c1C(c1ccccc1C(F)F)NC2=O)c1cc(F)cc(C(F)(F)F)c1` (stereo not drawn) [Compound I-792]: no more than 100 nM; `N#Cc1nn(C(F)F)cc1-c1cc(NC(=O)c2cc(F)cc(C(F)(F)F)c2)c2c(c1)C(=O)NC2c1cc(F)ccc1Cl` (stereo not drawn) [Compound I-1826]: no more than 100 nM. In turn, `O=C(Nc1cc(Br)cc2c1[C@@H](c1cc(F)ccc1Cl)NC2=O)c1cc(F)cc(C(F)(F)F)c1` [Compound I-387] had an IC50 of 1000 to 10000 nM. Next, `O=C1NC(c2cc(F)ccc2Cl)c2c(Nc3cc(CO)c(C(F)(F)F)cn3)cccc21` (stereo not drawn) [Compound I-1377]: 10000 to 100000 nM; `C[C@H](c1cc(NC(=O)c2cc(F)cc(C(F)(F)F)c2)c2c(c1)C(=O)N[C@@H]2c1cc(F)ccc1Cl)S(C)(=O)=O` (single isomer, unassigned) [Compound I-1643]: 1000 to 10000 nM; `O=C1NC(c2cc(F)ccc2Cl)c2c(NC(=O)c3cc(F)cc4cn[nH]c34)cccc21` (stereo not drawn) [Compound I-595]: 1000 to 10000 nM. Next, `N#Cc1cc(-c2cc(NC(=O)c3cc(F)cc(C(F)(F)F)c3)c3c(c2)C(=O)N[C@H]3c2cc(F)ccc2Cl)cn2ncnc12` [Compound I-1882]: no more than 100 nM; `CC(C)[C@@]1(O)CN(C(=O)Nc2cccc3c2[C@@H](c2cc(F)ccc2Cl)NC3=O)c2ccc(F)cc21` (single isomer, unassigned) [Compound I-2454]: 100 to 500 nM.

The compound `CC(=O)N[C@H]1CC[C@H](C(=O)Nc2cc(-c3ccc4ncnn4c3)cc3c2C(c2cc(F)ccc2Cl)NC3=O)CC1` (mixture of isomers) [Compound I-1850] showed a concentration for half-maximal inhibition (IC50) of 10000 to 100000 nM. Next, `O=C1NC(c2ccccc2Cl)c2c(NC(=O)c3nsc4ccccc34)cc(-c3cn[nH]c3)nc21` (stereo not drawn) [Compound I-94, N-(5-(2-Chlorophenyl)-7-oxo-2-(1H-pyrazol-4-yl)-6,7-dihydro-5H-pyrrolo[3,4-b]pyridin-4-yl)benzo[d]isothiazole-3-carboxamide]: 100 to 500 nM. On to `Cc1nn(C)cc1-c1cc(NC(=O)c2cc(F)cc(Cl)c2)c2c(n1)C(=O)NC2c1cc(F)ccc1Cl` (stereo not drawn) [Compound I-380], for which the IC50 lay in the range of 100 to 500 nM. In the case of `O=C1NC(c2cc(F)ccc2Cl)c2c(Nc3cc4ccccn4n3)cc(-c3ccc4ncnn4c3)cc21` (stereo not drawn) [Compound I-1679], the IC50 lay within 10000 to 100000 nM. In turn, `O=C(Nc1cc(-c2ccc3ncnn3c2)cc2c1C(c1cc(F)ccc1Cl)NC2=O)c1cc2ccccc2[nH]1` (stereo not drawn) [Compound I-1609] came in with an IC50 of 1000 to 10000 nM.

`O=C1NC(c2cc(F)ccc2Cl)c2c(NC(=O)C3CCCCC3)cc(-c3ccc4ncnn4c3)cc21` (stereo not drawn) [Compound I-1549] returned an IC50 of 1000 to 10000 nM.

The compound `O=C1NC(c2cc(F)ccc2Cl)c2c(NC(=O)c3coc4c(F)cc(F)cc34)cc(Br)cc21` (stereo not drawn) [Compound I-731] showed an IC50 of no more than 100 nM. Next, `CN1C[C@@H](Nc2cc(NC(=O)c3cc(F)cc(C(F)(F)F)c3)c3c(c2)C(=O)NC3c2cc(F)ccc2Cl)CC1=O` (single isomer, unassigned) [Compound I-375]: no more than 100 nM. Next, `Cc1ccc(F)cc1C1NC(=O)c2cc(Br)cc(NC(=O)c3cc(F)cc(C(F)(F)F)c3)c21` (stereo not drawn) [Compound I-759]: no more than 100 nM; `N#C[C@H]1C[C@@H](Oc2cc(NC(=O)c3cc(F)cc(C(F)(F)F)c3)c3c(c2)C(=O)NC3c2cc(F)ccc2Cl)C1` (mixture of isomers) [Compound I-1295]: no more than 100 nM. Next, `O=C1NC(c2cc(F)ccc2Cl)c2c(NC(=O)c3nsc(Cl)c3Cl)cc(Br)cc21` (stereo not drawn) [Compound I-1426]: 1000 to 10000 nM. Consider `O=C(Nc1cc(-c2ccc3ncnn3c2)cc2c1[C@H](c1cc(F)c(F)cc1Cl)NC2=O)c1cc(F)cc(C(F)(F)F)c1` [Compound I-1059], for which the half-maximal inhibitory concentration (IC50) was in the range of 1000 to 10000 nM. Next, `O=C(CC1CCCC(O)C1)Nc1cc(-c2ccc3ncnn3c2)cc2c1C(c1cc(F)ccc1Cl)NC2=O` (stereo not drawn) [Compound I-1960]: 10000 to 100000 nM. Next, `O=C1N[C@@H](c2cc(F)ccc2C(F)F)c2c(NC(=O)c3nsc4ccccc34)cccc21` [Compound I-168]: no more than 100 nM. Next, `O=C(Nc1cc(OCC(O)CO)cc2c1C(c1cc(F)ccc1Cl)NC2=O)c1cc(F)cc(C(F)(F)F)c1` (stereo not drawn) [Compound I-1341]: no more than 100 nM. The compound `O=C1C=C(c2cc(NC(=O)c3cc(F)cc(C(F)(F)F)c3)c3c(c2)C(=O)NC3c2cc(F)ccc2Cl)CO1` (stereo not drawn) [Compound I-1587] yielded an IC50 of no more than 100 nM. Next, `N#Cc1cccc(C2NC(=O)c3cccc(NC(=O)c4cc(F)cc(C(F)(F)F)c4)c32)c1` (stereo not drawn) [Compound I-659]: 10000 to 100000 nM.

On to `CNc1cc(NC(=O)N2C[C@@](O)(C(F)(F)F)c3cc(F)ccc32)c2c(c1C#N)C(=O)N[C@@H]2c1cc(F)ccc1Cl` (single isomer, unassigned) [Compound I-2607], for which the IC50 lay within 1000 to 10000 nM. `N#Cc1cccc(S(=O)(=O)Cc2cc(NC(=O)c3cc(F)cc(C(F)(F)F)c3)c3c(c2)C(=O)NC3c2cc(F)ccc2Cl)c1` (stereo not drawn) [Compound I-1491] had an IC50 of no more than 100 nM.

Regarding `O=C(Nc1cccc2c1C(C1CCCCC1O)NC2=O)c1cc(F)cc(C(F)(F)F)c1` (stereo not drawn) [Compound I-1820], the IC50 lay in the range of 10000 to 100000 nM. Next, `O=C1N[C@@H](c2cc(F)ccc2Cl)c2c(NC(=O)[C@@H]3CCC[C@H](OC(F)(F)F)C3)cccc21` (single isomer, unassigned) [Compound I-2214]: 10000 to 100000 nM; `CS(=O)(=O)CCCOc1cc(NC(=O)c2cc(F)cc(C(F)(F)F)c2)c2c(c1)C(=O)NC2c1cc(F)ccc1Cl` (stereo not drawn) [Compound I-735]: 100 to 500 nM.

`N#Cc1cc(NC(=O)c2cc(F)cc(C(F)(F)F)c2)c2c(c1)C(=O)NC2c1cc(F)ccc1C(F)F` (stereo not drawn) [Compound I-237] yielded an IC50 of no more than 100 nM. Next, `O=C1N[C@@H](c2cc(F)ccc2Cl)c2c(N[C@H]3CCOc4ccccc43)cc(Br)cc21` (racemic) [Compound I-2013]: 10000 to 100000 nM; `C[C@H](C#N)Oc1cc(NC(=O)c2cc(F)cc(C(F)(F)F)c2)c2c(c1)C(=O)N[C@@H]2c1cc(F)ccc1Cl` (single isomer, unassigned) [Compound I-2005]: 1000 to 10000 nM. Next, `O=C(Nc1cc(-c2ccc3nnc(Cl)n3c2)cc2c1[C@@H](c1cc(F)ccc1Cl)NC2=O)c1cc(F)cc(C(F)(F)F)c1` [Compound I-1676]: 100 to 500 nM; `O=C(Nc1cc(-c2ccc3ncnn3n2)cc2c1[C@@H](c1cc(F)ccc1Cl)NC2=O)c1cc(F)cc(C(F)(F)F)c1` [Compound I-1649]: 1000 to 10000 nM. For the compound `O=C1NC(c2cc(F)ccc2Cl)c2c(NC(=O)c3nsc4ccccc34)cc(CO)cc21` (stereo not drawn) [Compound I-154], the IC50 was no more than 100 nM. Next, `O=C1NC(c2cc(F)ccc2Cl)c2c(NC(=O)C3CCC3)cc(-c3ccc4ncnn4c3)cc21` (stereo not drawn) [Compound I-1778]: 10000 to 100000 nM.

The compound `O=C(Nc1cnc(N2CC(F)(F)C2)c2c1C(Cl)(c1cc(F)ccc1Cl)NC2=O)c1cc(F)cc(C(F)(F)F)c1` (stereo not drawn) [Compound I-274, N-(1-Chloro-1-(2-chloro-5-fluorophenyl)-4-(3,3-difluoroazetidin-1-yl)-3-oxo-2,3-dihydro-1H-pyrrolo[3,4-c]pyridin-7-yl)-3-fluoro-5-(trifluoromethyl)benzamide] displayed an IC50 of 1000 to 10000 nM. The compound `O=C1NC(c2cc(F)ccc2Cl)c2c(Nc3cccc4ccccc34)cc(Br)cc21` (stereo not drawn) [Compound I-1682] returned an IC50 of 1000 to 10000 nM. In the case of `CCn1cc(-c2cc(NC(=O)c3cc(F)cc(C(F)(F)F)c3)c3c(n2)C(=O)NC3c2cc(F)ccc2Cl)ccc1=O` (stereo not drawn) [Compound I-586], the IC50 is no more than 100 nM.

(Values after patent US12581252B2, “Substituted pyrrolo[3,4-b]pyridines as PI3K-α inhibitors” (Relay Therapeutics, Inc., priority 2020, dated 2026).)
